Measured values from patent publication US20100292188A1, “Compounds Comprising A Cyclobutoxy Group” (UCB PHARMA S.A., priority 2008, published 2010).

| melting point | Structure (SMILES) |
| --- | --- |
| 147 to 148 °C | O=C(C(O)C(F)(F)F)N1CCc2nc(-c3ccc(O[C@H]4C[C@H](N5CCCCC5)C4)cc3)sc2C1 (stereo partly drawn) [Compound 44, 1,1,1-trifluoro-3-oxo-3-[2-{4-[(trans-3-piperidin-1-ylcyclobutyl)oxy]phenyl}-6,7-dihydro[1,3]thiazolo[5,4-c]pyridin-5(4H)-yl]propan-2-ol] |
| 176 °C | NC(=O)CC(=O)N1CCc2nc(-c3ccc(O[C@H]4C[C@H](N5CCCCC5)C4)cc3)sc2C1 [Compound 25, 3-oxo-3-[2-{4-[(trans-3-piperidin-1-ylcyclobutyl)oxy]phenyl}-6,7-dihydro[1,3]thiazolo[5,4-c]pyridin-5(4H)-yl]propanamide] |
| 200 °C | CCNC(=O)N1CCc2nc(-c3ccc(O[C@H]4C[C@H](N5CCCCC5)C4)cc3)sc2C1 [Compound 21, N-ethyl-2-{4-[(trans-3-piperidin-1-ylcyclobutyl)oxy]phenyl}-6,7-dihydro[1,3]thiazolo[5,4-c]pyridine-5(4H)-carboxamide] |
| 183.4 °C | NC(=O)CC(=O)N1CCc2sc(-c3ccc(O[C@H]4C[C@H](N5CCCCC5)C4)cc3)nc2C1 [Compound 65, 3-oxo-3-[2-{4-[(trans-3-piperidin-1-ylcyclobutyl)oxy]phenyl}-6,7-dihydro[1,3]thiazolo[4,5-c]pyridin-5(4H)-yl]propanamide] |
| 145 to 146 °C | CCOC(=O)C(=O)N1CCc2nc(-c3ccc(O[C@H]4C[C@H](N5CCCCC5)C4)cc3)sc2C1 [Compound 49, ethyl oxo[2-{4-[(trans-3-piperidin-1-ylcyclobutyl)oxy]phenyl}-6,7-dihydro[1,3]thiazolo[5,4-c]pyridin-5(4H)-yl]acetate] |
| 169 °C | OCC(O)CN1CCc2nc(-c3ccc(O[C@H]4C[C@H](N5CCCCC5)C4)cc3)sc2C1 (stereo partly drawn) [Compound 15, 3-[2-{4-[(trans-3-piperidin-1-ylcyclobutyl)oxy]phenyl}-6,7-dihydro[1,3]thiazolo[5,4-c]pyridin-5(4H)-yl]propane-1,2-diol] |
| 155.3 °C | O=C(CO)N1CCc2sc(-c3ccc(O[C@H]4C[C@H](N5CCCCC5)C4)cc3)nc2C1 [Compound 63, 2-oxo-2-[2-{4-[(trans-3-piperidin-1-ylcyclobutyl)oxy]phenyl}-6,7-dihydro[1,3]thiazolo[4,5-c]pyridin-5(4H)-yl]ethanol] |
| 178 °C | O=C(N1CCc2nc(-c3ccc(O[C@H]4C[C@H](N5CCCCC5)C4)cc3)sc2C1)C1(O)CC1 [Compound 46, 1-{[2-{4-[(trans-3-piperidin-1-ylcyclobutyl)oxy]phenyl}-6,7-dihydro[1,3]thiazolo[5,4-c]pyridin-5(4H)-yl]carbonyl}cyclopropanol] |
| 196 °C | CC(=O)N1CCc2nc(-c3ccc(O[C@H]4C[C@H](N5CCSCC5)C4)cc3)sc2C1 [Compound 22, 5-acetyl-2-{4-[(trans-3-thiomorpholin-4-ylcyclobutyl)oxy]phenyl}-4,5,6,7-tetrahydro[1,3]thiazolo[5,4-c]pyridine] |
| 145.7 to 146.1 °C | CC(=O)N1CCc2nc(-c3ccc(O[C@H]4C[C@H](N5CCN(C6CCCC6)CC5)C4)cc3)sc2C1 [Compound 51, 5-acetyl-2-(4-{[trans-3-(4-cyclopentylpiperazin-1-yl)cyclobutyl]oxy}phenyl)-4,5,6,7-tetrahydro[1,3]thiazolo[5,4-c]pyridine] |
| 169 °C | O[C@H]1C[C@@H](N2CCc3nc(-c4ccc(O[C@H]5C[C@H](N6CCCCC6)C5)cc4)sc3C2)C1 [Compound 24, cis-3-[2-{4-[(trans-3-piperidin-1-ylcyclobutyl)oxy]phenyl}-6,7-dihydro[1,3]thiazolo[5,4-c]pyridin-5(4H)-yl]cyclobutanol] |
| 161.6 to 162.2 °C | CC(=O)N1CCc2nc(-c3ccc(O[C@H]4C[C@H](N5CCOCC5)C4)cc3)sc2C1 [Compound 8, 5-acetyl-2-{4-[(trans-3-morpholin-4-ylcyclobutyl)oxy]phenyl}-4,5,6,7-tetrahydro[1,3]thiazolo[5,4-c]pyridine] |
| 157 to 159 °C | CC(C)Oc1c(N2CCc3nc(-c4ccc(O[C@H]5C[C@H](N6CCCCC6)C5)cc4)sc3C2)c(=O)c1=O [Compound 56, 3-isopropoxy-4-[2-{4-[(trans-3-piperidin-1-ylcyclobutyl)oxy]phenyl}-6,7-dihydro[1,3]thiazolo[5,4-c]pyridin-5(4H)-yl]cyclobut-3-ene-1,2-dione] |
| 144.5 °C | c1cc(-c2nc3c(s2)CNCC3)ccc1O[C@H]1C[C@H](N2CCCCC2)C1 [Compound 5, 2-{4-[(trans-3-piperidin-1-ylcyclobutyl)oxy]phenyl}-4,5,6,7-tetrahydro[1,3]thiazolo[5,4-c]pyridine] |
| 49 °C | CC(=O)N1CCCCc2nc(-c3ccc(O[C@H]4C[C@H](N5CCCCC5)C4)cc3)sc21 [Compound 31, 4-acetyl-2-{4-[(trans-3-piperidin-1-ylcyclobutyl)oxy]phenyl}-5,6,7,8-tetrahydro-4H-[1,3]thiazolo[5,4-b]azepine] |
| 209 to 210 °C | NC(=O)NCC(=O)N1CCc2nc(-c3ccc(O[C@H]4C[C@H](N5CCCCC5)C4)cc3)sc2C1 [Compound 52, 1-{2-oxo-2-[2-{4-[(trans-3-piperidin-1-ylcyclobutyl)oxy]phenyl}-6,7-dihydro[1,3]thiazolo[5,4-c]pyridin-5(4H)-yl]ethyl}urea] |

| melting point | Structure (SMILES) |
| --- | --- |
| > 200 °C | O=C(O)COCC(=O)N1CCc2nc(-c3ccc(O[C@H]4C[C@H](N5CCCCC5)C4)cc3)sc2C1 [Compound 43, {2-oxo-2-[2-{4-[(trans-3-piperidin-1-ylcyclobutyl)oxy]phenyl}-6,7-dihydro[1,3]thiazolo[5,4-c]pyridin-5(4H)-yl]ethoxy}acetic acid] |
| 172 °C | OC[C@H](O)CN1CCc2nc(-c3ccc(O[C@H]4C[C@H](N5CCCCC5)C4)cc3)sc2C1 [Compound 17, (2R)-3-[2-{4-[(trans-3-piperidin-1-ylcyclobutyl)oxy]phenyl}-6,7-dihydro[1,3]thiazolo[5,4-c]pyridin-5(4H)-yl]propane-1,2-diol] |
| 142 °C | OCCN1CCc2nc(-c3ccc(O[C@H]4C[C@H](N5CCCCC5)C4)cc3)sc2C1 [Compound 37, 2-[2-{4-[(trans-3-piperidin-1-ylcyclobutyl)oxy]phenyl}-6,7-dihydro[1,3]thiazolo[5,4-c]pyridin-5(4H)-yl]ethanol] |
| 221 °C | COC(=O)CN1CCc2nc(-c3ccc(O[C@H]4C[C@H](N5CCCCC5)C4)cc3)sc2C1 [Compound 26, methyl [2-{4-[(trans-3-piperidin-1-ylcyclobutyl)oxy]phenyl}-6,7-dihydro[1,3]thiazolo[5,4-c]pyridin-5(4H)-yl]acetate] |
| 165 °C | O=C(CCCN1CC[S+]([O-])CC1)N1CCc2nc(-c3ccc(O[C@H]4C[C@H](N5CCCCC5)C4)cc3)sc2C1 [Compound 41, 5-[4-(1-oxidothiomorpholin-4-yl)butanoyl]-2-{4-[(trans-3-piperidin-1-ylcyclobutyl)oxy]phenyl}-4,5,6,7-tetrahydro[1,3]thiazolo[5,4-c]pyridine] |
| 231 °C | NC(=O)CN1CCc2nc(-c3ccc(O[C@H]4C[C@H](N5CCCCC5)C4)cc3)sc2C1 [Compound 18, 2-[2-{4-[(trans-3-piperidin-1-ylcyclobutyl)oxy]phenyl}-6,7-dihydro[1,3]thiazolo[5,4-c]pyridin-5(4H)-yl]acetamide] |
| > 220 °C | O=c1c(O)c(N2CCc3nc(-c4ccc(O[C@H]5C[C@H](N6CCCCC6)C5)cc4)sc3C2)c1=O [Compound 55, 3-hydroxy-4-[2-{4-[(trans-3-piperidin-1-ylcyclobutyl)oxy]phenyl}-6,7-dihydro[1,3]thiazolo[5,4-c]pyridin-5(4H)-yl]cyclobut-3-ene-1,2-dione] |
| 142.8 °C | CC(=O)N1CCc2nc(-c3ccc(O[C@H]4C[C@H](N5CCCCC5)C4)cc3F)sc2C1 [Compound 36, 5-acetyl-2-{2-fluoro-4-[(trans-3-piperidin-1-ylcyclobutyl)oxy]phenyl}-4,5,6,7-tetrahydro[1,3]thiazolo[5,4-c]pyridine] |
| 214.3 °C | NC(=O)N1CCc2sc(-c3ccc(O[C@H]4C[C@H](N5CCCCC5)C4)cc3)nc2C1 [Compound 64, 2-{4-[(trans-3-piperidin-1-ylcyclobutyl)oxy]phenyl}-6,7-dihydro[1,3]thiazolo[4,5-c]pyridine-5(4H)-carboxamide] |
| 199 to 200 °C | NC(=O)C1(C(=O)N2CCc3nc(-c4ccc(O[C@H]5C[C@H](N6CCCCC6)C5)cc4)sc3C2)CC1 [Compound 47, 1-{[2-{4-[(trans-3-piperidin-1-ylcyclobutyl)oxy]phenyl}-6,7-dihydro[1,3]thiazolo[5,4-c]pyridin-5(4H)-yl]carbonyl}cyclopropanecarboxamide] |
| 65 °C | c1cc2sc(-c3ccc(O[C@H]4C[C@H](N5CCCCC5)C4)cc3)nc2cn1 [Compound 32, 2-{4-[(trans-3-piperidin-1-ylcyclobutyl)oxy]phenyl}[1,3]thiazolo[4,5-c]pyridine] |
| 199 °C | NC(=O)N1CCc2nc(-c3ccc(O[C@H]4C[C@H](N5CCCCC5)C4)cc3)sc2C1 [Compound 10, 2-{4-[(trans-3-piperidin-1-ylcyclobutyl)oxy]phenyl}-6,7-dihydro[1,3]thiazolo[5,4-c]pyridine-5(4H)-carboxamide] |
| 199 °C | NCC(=O)N1CCc2nc(-c3ccc(O[C@H]4C[C@H](N5CCCCC5)C4)cc3)sc2C1 [Compound 9, 2-oxo-2-[2-{4-[(trans-3-piperidin-1-ylcyclobutyl)oxy]phenyl}-6,7-dihydro[1,3]thiazolo[5,4-c]pyridin-5(4H)-yl]ethanamine] |
| 149.3 °C | O=C(N1CCOCC1)N1CCc2nc(-c3ccc(O[C@H]4C[C@H](N5CCCCC5)C4)cc3)sc2C1 [Compound 6, 5-(morpholin-4-ylcarbonyl)-2-{4-[(trans-3-piperidin-1-ylcyclobutyl)oxy]phenyl}-4,5,6,7-tetrahydro[1,3]thiazolo[5,4-c]pyridine] |
| 167 to 168 °C | O=C(CC(F)(F)F)N1CCc2nc(-c3ccc(O[C@H]4C[C@H](N5CCCCC5)C4)cc3)sc2C1 [Compound 33, 2-{4-[(trans-3-piperidin-1-ylcyclobutyl)oxy]phenyl}-5-(3,3,3-trifluoropropanoyl)-4,5,6,7-tetrahydro[1,3]thiazolo[5,4-c]pyridine] |
